# Laboratory results taken from US10676457B2, “Cyclopropylamines as LSD1 inhibitors” (Incyte Corporation, priority 2014, dated 2020).
# Molecular target: LSD-1 enzyme (Homo sapiens (Human), UniProt O60341)
# Test: LANCE LSD1/KDM1A demethylase assay (LSD1 histone demethylase biochemical assay)
# Details: 1 nM LSD-1 enzyme, 1 hour preincubation at 25° C., 0.4 μM Biotin-labeled Histone H3 peptide substrate
# Method: LANCE LSD1/KDM1A demethylase assay—10 μL of 1 nM LSD-1 enzyme (ENZO BML-SE544-0050) in the assay buffer (50 mM Tris, pH 7.5, 0.01% Tween-20, 25 mM NaCl, 5 mM DTT) were preincubated for 1 hour at 25° C. with 0.8 μL compound/DMSO dotted in black 384 well polystyrene plates. […] After stopping the reactions plates were incubated for 30 minutes and read on a PHERAstar FS plate reader (BMG Labtech).
smiles,measurement,value
"CS(=O)(=O)N1CC(CCO)(N2CCC(N[C@@H]3C[C@H]3c3ccccc3)CC2)C1 [Example 93, 2-[1-(methylsulfonyl)-3-(4-{[(1R,2S)-2-phenylcyclopropyl]amino}piperidin-1-yl)azetidin-3-yl]ethanol]",IC50,< 0.1 µM
